One data set concerns the target T1, ETB receptors (Cavia porcellus, UniProt H0VTF3).
T1 construct: Guinea pig cerebella were homogenized in a Potter-Elvejhem homogenizer; from tissue; host or cells: guinea pig cerebellum membranes
T1 sequence (H0VTF3 27-415): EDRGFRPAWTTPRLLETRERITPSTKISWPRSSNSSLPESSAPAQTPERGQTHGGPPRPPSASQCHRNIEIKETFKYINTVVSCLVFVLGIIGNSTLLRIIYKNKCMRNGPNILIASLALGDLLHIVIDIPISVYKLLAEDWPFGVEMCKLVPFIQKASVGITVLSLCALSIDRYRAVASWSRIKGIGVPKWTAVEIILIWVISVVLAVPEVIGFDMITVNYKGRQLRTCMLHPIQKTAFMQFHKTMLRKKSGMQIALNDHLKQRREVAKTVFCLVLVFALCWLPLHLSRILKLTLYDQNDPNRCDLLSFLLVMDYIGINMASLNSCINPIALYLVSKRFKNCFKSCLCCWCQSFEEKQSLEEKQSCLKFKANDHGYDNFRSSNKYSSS
Nature of the data set: ETB receptor binding assay ([125I]-RZ3, guinea pig cerebellar membranes). The following applies: 25 pM [125I]-RZ3, 25° C., 30 min.

The target of data set [1] is T2, Cloned human ETA receptor (Homo sapiens, UniProt P25101).
T2 construct: expressed in transfected cells; host or cells: CHO cells
T2 sequence (P25101 21-427): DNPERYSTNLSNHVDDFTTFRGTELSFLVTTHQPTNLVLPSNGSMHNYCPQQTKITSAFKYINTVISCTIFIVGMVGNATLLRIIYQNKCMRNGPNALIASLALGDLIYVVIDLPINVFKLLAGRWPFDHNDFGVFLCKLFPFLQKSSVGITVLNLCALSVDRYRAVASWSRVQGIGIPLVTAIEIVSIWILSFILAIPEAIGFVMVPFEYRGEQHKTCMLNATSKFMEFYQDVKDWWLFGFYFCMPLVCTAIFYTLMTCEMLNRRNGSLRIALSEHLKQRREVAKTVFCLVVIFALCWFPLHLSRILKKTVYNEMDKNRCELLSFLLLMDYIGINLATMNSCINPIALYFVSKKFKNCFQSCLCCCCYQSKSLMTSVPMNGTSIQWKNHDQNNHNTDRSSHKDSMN
Nature of the data set: ETA receptor binding assay ([125I]-ET1, membranes of CHO cells). To be noted: 25 pM [125I]-ET1, 25° C., 30 min. On the procedure: Cloned human ETA receptor-expressing CHO cells and guinea pig cerebellar membranes with >60% ETB compared with ETA receptors were used for binding studies.
The ETA receptor-expressing CHO cells were grown in F12 medium containing 10% fetal calf serum, 1% glutamine, 100 U/ml penicillin and 0.2% streptomycin (Gibco BRL, Gaithersburg, Md., USA).
After 48 h, the cells were washed with PBS and incubated with 0.05% trypsin-containing PBS for 5 min. Neutralization was then carried out with F12 medium, and the cells were collected by centrifugation at 300×g. To lyze lyse the cells, the pellet was briefly washed with lysis buffer (5 mM Tris-IICl, pII 7.4 with 10% glycerol) and then incubated at a concentration of 10^7 cells/ml of lysis buffer at 4° C. for 30 min. The membranes were centrifuged at 20,000×g for 10 min, and the pellet was stored in liquid nitrogen.
For the ETA and ETB receptor binding assay, the membranes were suspended in incubation buffer (50 mM Tris-HCl, pH 7.4 with 5 mM MnCl2, 40 μg/ml bacitracin and 0.2% BSA) at a concentration of 50 μg of protein per assay mixture and incubated with 25 pM [125I] [^125I]-ET1 (ETA receptor assay) or 25 pM [125I] [^125I]-RZ3 (ETB receptor assay) in the presence and absence of test substance at 25° C. The nonspecific binding was determined using 10^--7 10^−7 M ET1. After 30 min, the free and bound radioligand were separated by filtration through GF/B glass fiber filters (Whatman, England) on a Skatron cell collector (Skatron, Lier, Norway) and the filters were washed with ice-cold Tris-HCl buffer, pH 7.4 with 0.2% BSA. The radioactivity collected on the filters was quantified using a Packard 2200 CA liquid scintillation counter.

Protocol for ETB receptors: Guinea pig cerebella were homogenized in a Potter-Elvejhem homogenizer and [lacuna] obtained by differential centrifugation at 1000×g for 10 min and repeated centrifugation of the supernatant at 20,000×g for 10 min.

What is called Ki is the dissociation constant of the complex between target and ligand, obtained from inhibition or displacement. Low readings indicate a stronger hold on the target, high ones a looser hold on the target. The compound `COc1cc(OC)nc(OC(C(=O)O)C(OC)(c2ccccc2)c2ccccc2)n1` (stereo not drawn) [Compound I-2] yielded an inhibition constant Ki on ETB receptors of 34 nM. For the compound `CCOC(c1ccccc1)(c1ccccc1)C(Oc1nc(OC)cc(OC)n1)C(=O)O` (stereo not drawn) [Compound I-4], the Ki at ETB receptors was found to be 2500 nM. Consider `COc1cc(OC)nc(OC(C(=O)O)C(OC(C)C)(c2ccccc2)c2ccccc2)n1` (stereo not drawn) [Compound I-5], for which the results for the Ki (at ETB receptors; in data set [1]) were 160 nM and 12 nM, respectively. For `CCCOC(c1ccccc1)(c1ccccc1)C(Oc1nc(OC)cc(OC)n1)C(=O)O` (stereo not drawn) [Compound I-12], on ETB receptors, the Ki is 1700 nM. As to `COc1cc(OC)nc(OC(C(=O)O)C(OCCCC(C)C)(c2ccccc2)c2ccccc2)n1` (stereo not drawn) [Compound I-23], the values for the inhibitory constant (Ki) (on ETB receptors; in data set [1]) were 1100 nM and 209 nM, respectively.

Consider `COc1cc(OC)nc(OC(C(=O)O)C(OCC2CC2)(c2ccccc2)c2ccccc2)n1` (stereo not drawn) [Compound I-26], for which the Ki on ETB receptors amounted to 2000 nM; in data set [1] it was 23 nM. For `COc1cc(OC)nc(OC(C(=O)O)C(Oc2ccccc2)(c2ccccc2)c2ccccc2)n1` (stereo not drawn) [Compound I-29], the inhibitory constant (Ki) at ETB receptors worked out at 180 nM; in data set [1] it was 86 nM. In the same order, the values of `COc1cc(OC)nc(OC(C(=O)O)C(OCc2ccccc2)(c2ccccc2)c2ccccc2)n1` (stereo not drawn) [Compound I-47] are 1500 nM and 150 nM.

In data set [1], `COc1nc(OC(C(=O)O)C(OC)(c2ccccc2)c2ccccc2)nc2c1CCO2` (stereo not drawn) [Compound I-87] yielded a Ki of 1 nM. Turning to `COc1nc(OC(C(=O)O)C(OC)(c2ccccc2)c2ccccc2)nc2c1CCC2` (stereo not drawn) [Compound I-96], the Ki at ETB receptors amounted to 56 nM; in data set [1] it was 0.6 nM. With `COc1cc(C)nc(OC(C(=O)O)C(OC)(c2ccccc2)c2ccccc2)n1` (stereo not drawn) [Compound I-103], the Ki in data set [1] was found to be 0.4 nM. On to `COc1cc(OC)nc(OC(C(=O)O)C(SC)(c2ccccc2)c2ccccc2)n1` (stereo not drawn) [Compound I-107], for which the Ki turned out to be 485 nM at ETB receptors and 3 nM in data set [1]. Usually melting point stands for the temperature, or range, at which the solid turns liquid. `COc1nc(OC(C(=O)OCc2ccccc2)C(OC)(c2ccccc2)c2ccccc2)nc2c1CCC2` (stereo not drawn) [Example 12, Benzyl 3-methoxy-2-(4-methoxy-6,7-dihydro-5H-cyclopentapyrimidin-2-yloxy)-3,3-diphenylpropionate]: the melting point fell in the range of 143 to 147 °C. With `COc1nc(OC(C(=O)O)C(OC)(c2ccccc2)c2ccccc2)nc2c1ccn2C` (stereo not drawn) [I.89], the inhibition constant (Ki) at ETB receptors stood at 9300 nM; in data set [1] it was 86 nM. As to `COc1cc(OC)nc(OC(C(=O)O)C2(OC)c3ccccc3-c3ccccc32)n1` (stereo not drawn) [II-1], the melting point was in the range of 96 to 98 °C. For the same compound, on ETB receptors, the inhibition constant (Ki) amounted to 2300 nM. In data set [1], this compound registered a Ki of 28 nM. Turning to `COc1cc(OC)nc(OC(C(=O)O)C2(OC)c3ccccc3CCc3ccccc32)n1` (stereo not drawn) [II-3], the figures for the Ki (on ETB receptors; in data set [1]) were 7300 nM and 107 nM, respectively.
